Results as given in PMC11770630 (Journal of Medicinal Chemistry, 2025).

Columns and labels:
HCT116 cells [1] = conditions: 24 h, safety limit cell viability >80%; for Cell viability (MTT), safety at 1 μM: HCT116, 1 μM; for Cell viability (MTT), safety above 5 μM: HCT116, 5 and 10 μM
MERLIN-HCT116 cells = assay: MERLIN BRET biosensor assay of mitochondria-ER distance; type: cell-based, human
[2] = tested on: lymphoblasts from sporadic ALS patients; assay: Electron microscopy of lymphoblast cells; type: cell-based, human; conditions: 5 μM for 24 h
HCT116 cells [3] = assay: Extracellular NBD-cholesterol uptake in HCT116 cells; type: cell-based, human; conditions: HCT116, 5 μM, after 3 h
[4] = tested on: control and sALS lymphoblasts; assay: Quantification of lipid droplets; type: cell-based, human; conditions: control or sALS lymphoblasts, 5 μM for 24 h
[5] = tested on: ALS patient-derived lymphoblastic cell lines; assay: Extracellular NBD-cholesterol uptake in patient lymphoblastic cell lines; type: cell-based, human; conditions: SOD1-ALS lymphoblastoid cell lines, 5 μM, 24 h, NBD-cholesterol 1 h
sALS lymphoblasts = assay: Mitochondrial oxygen consumption rate; type: cell-based, human; conditions: 5 μM, 24 h
[6] = tested on: control and sALS lymphoblasts; assay: Cholesteryl-esters determination; type: cell-based, human; conditions: control or sALS lymphoblasts, 5 μM for 24 h

Compound | Cell viability (MTT), safety at 1 μM (HCT116 cells [1]) | BBB passive permeation (PAMPA) | Cell viability (MTT), safety above 5 μM (HCT116 cells [1]) | also measured
O=C(Nc1ccc([N+](=O)[O-])cc1F)c1cc(Cl)ccc1O [Compound 2, 5-Chloro-N-(2-fluoro-4-nitrophenyl)-2-hydroxybenzamide] | safe | – | – | –
O=C(Nc1ccc([N+](=O)[O-])cc1)c1cc(Cl)ccc1O [Compound 25, 5-Chloro-2-hydroxy-N-(4-nitrophenyl)benzamide] | – | demonstrated the capability to cross the BBB through passive permeation | – | –
O=C(Nc1cccc([N+](=O)[O-])c1)c1cc(Cl)ccc1O [Compound 29, 5-Chloro-2-hydroxy-N-(3-nitrophenyl)benzamide] | safe | demonstrated the capability to cross the BBB through passive permeation | cellular safety above 5 μM | –
O=C(Nc1ccc([N+](=O)[O-])cc1Cl)c1cc(Cl)ccc1O [Compound 1, 5-Chloro-N-(2-chloro-4-nitrophenyl)-2-hydroxybenzamide, reference compound] | – | – | – | EC50 (MERLIN-HCT116 cells; Homo sapiens, read-out: EC50 (BRET), HTS hit): 8.36 µM
O=C(Nc1ccccc1)c1cc(Cl)ccc1O [Compound 24, 5-Chloro-2-hydroxy-N-phenylbenzamide] | safe | demonstrated the capability to cross the BBB through passive permeation | cellular safety above 5 μM | BRET signal change (individual data) (MERLIN-HCT116 cells; higher doses, normalized to DMSO (MOCK)): significant BRET increases at higher doses; Number of MERCs (TEM) ([2]; lymphoblasts from sALS patients): rescued the number of contacts; Lipid droplets in cytosol (TEM) ([2]; sALS lymphoblasts): displayed large lipid droplets in their cytosol; Mitochondrial cristae structure (TEM) ([2]; sALS lymphoblasts): cristae structure was restored; Extracellular cholesterol uptake capacity (HCT116 cells [3]): significantly increased; Lipid droplet levels [4]: increase the levels of lipid droplet; Extracellular cholesterol uptake [5]: this change was not observed; Basal OCR (sALS lymphoblasts): successfully restored basal OCR levels; Spare respiratory capacity (sALS lymphoblasts): notable improvement in spare respiratory capacity; Cholesteryl esters levels [6]: induce the formation of cholesteryl esters
N#Cc1ccc(NC(=O)c2cc(Cl)ccc2O)cc1 [Compound 27, 5-Chloro-N-(4-cyanophenyl)-2-hydroxybenzamide] | safe | demonstrated the capability to cross the BBB through passive permeation | cellular safety above 5 μM | –
